This is an account of results in paper PMC8504577, “Evaluation of a Clinically Relevant Drug–Drug Interaction Between Rosuvastatin and Clopidogrel and the Risk of Hepatotoxicity” (Frontiers in Pharmacology, 2021).

Entries after “also recorded” stand apart in the source; their conditions may differ. Where two headings read alike, the source gives them in different places.

For data set [1] the following is noted: for I2, maximal theoretical gastrointestinal concentration: dose/250 ml; for Imax,u, unbound steady-state plasma peak concentration: fu×I1.
The target in a further data set is T1, OATP1B3 (Homo sapiens, UniProt Q9NPD5).
T1 sequence (Q9NPD5 1-702): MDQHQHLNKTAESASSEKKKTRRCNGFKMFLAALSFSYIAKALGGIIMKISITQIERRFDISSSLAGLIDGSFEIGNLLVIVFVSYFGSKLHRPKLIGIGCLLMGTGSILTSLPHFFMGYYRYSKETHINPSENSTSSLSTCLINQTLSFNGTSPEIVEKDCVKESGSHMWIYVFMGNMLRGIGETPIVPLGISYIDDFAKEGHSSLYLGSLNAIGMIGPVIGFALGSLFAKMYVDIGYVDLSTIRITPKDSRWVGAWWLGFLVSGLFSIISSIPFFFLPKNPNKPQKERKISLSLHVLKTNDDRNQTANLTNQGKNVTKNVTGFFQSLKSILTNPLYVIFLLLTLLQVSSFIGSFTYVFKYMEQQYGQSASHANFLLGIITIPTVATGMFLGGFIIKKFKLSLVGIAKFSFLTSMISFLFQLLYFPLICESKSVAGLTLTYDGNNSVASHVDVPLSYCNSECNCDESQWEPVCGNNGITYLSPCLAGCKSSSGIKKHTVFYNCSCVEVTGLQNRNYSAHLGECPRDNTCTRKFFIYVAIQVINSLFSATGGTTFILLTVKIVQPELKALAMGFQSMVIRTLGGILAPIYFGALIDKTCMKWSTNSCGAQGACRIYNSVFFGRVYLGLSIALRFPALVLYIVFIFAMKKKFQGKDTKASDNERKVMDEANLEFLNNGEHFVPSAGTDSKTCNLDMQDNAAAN
Briefly: cell-based. On the procedure:
(§1) The OATP1B1, OATP1B3, and mock cells were cultured in the DMEM medium containing 10% fetal bovine serum, penicillin–streptomycin solution (100 U/mL and 0.1 mg/ml), and 0.5 mg/ml geneticin at 37°C in the presence of 5% CO2. The cells were seeded in a 24-well plate at a density of 4×10^5 cells/well and grown for 80–90% confluence. […] After washing the cells three times with transporter buffer at 4°C, the cells were lysed with liquid nitrogen. The lysates were precipitated with methanol and centrifuged at 12,000 rpm at 4°C for 5 min. The supernatant was analyzed by LC-MS/MS. Protein concentration was determined using the Pierce® BCA Protein Assay Kit. All experiments were performed in triplicate.
(§2) Phoenix WinNonlin® 7.1 (Pharsight Corporation, Mountain View, CA, United States) was used to calculate the pharmacokinetic parameters by the noncompartmental method. IC50 values were obtained by a computer-generated nonlinear least squares fit using GraphPad Prism 8.1 (GraphPad Software, San Diego, CA, United States). Statistical analysis was performed using SPSS ver. 22.0 (IBM, Chicago, IL, United States). The results are presented as mean ± S.D., unless otherwise stated. After testing for the homogeneity of variance, statistical analysis was performed with a one-way ANOVA followed by the LSD post hoc test or unpaired Student’s t-test. A probability (p) of less than 0.05, 0.01, and 0.001 was considered to be statistically significant, highly significant, and extremely significant, respectively.

Data set [2] has as its target T2, OATP1B1 (Homo sapiens, UniProt Q9Y6L6).
T2 sequence (Q9Y6L6 1-691): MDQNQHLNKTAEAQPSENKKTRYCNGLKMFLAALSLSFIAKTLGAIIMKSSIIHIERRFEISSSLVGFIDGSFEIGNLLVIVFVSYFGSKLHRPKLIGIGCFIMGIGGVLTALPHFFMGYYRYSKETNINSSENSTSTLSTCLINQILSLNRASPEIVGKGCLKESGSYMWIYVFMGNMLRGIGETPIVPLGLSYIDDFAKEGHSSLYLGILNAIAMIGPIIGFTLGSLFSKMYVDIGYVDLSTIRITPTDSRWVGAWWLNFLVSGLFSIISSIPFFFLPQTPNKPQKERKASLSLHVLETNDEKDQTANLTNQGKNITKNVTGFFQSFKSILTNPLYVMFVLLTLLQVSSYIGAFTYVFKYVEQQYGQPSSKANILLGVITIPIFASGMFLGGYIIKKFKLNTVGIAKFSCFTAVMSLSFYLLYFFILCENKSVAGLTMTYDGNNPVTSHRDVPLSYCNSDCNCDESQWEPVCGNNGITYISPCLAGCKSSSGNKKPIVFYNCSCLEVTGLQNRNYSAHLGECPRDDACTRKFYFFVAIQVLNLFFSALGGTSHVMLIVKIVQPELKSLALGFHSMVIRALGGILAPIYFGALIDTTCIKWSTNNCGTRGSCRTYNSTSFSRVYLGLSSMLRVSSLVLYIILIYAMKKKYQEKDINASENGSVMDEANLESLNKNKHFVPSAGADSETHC
The data set is described as follows: cell-based. On the procedure: as §1, §2

Data set [3] deals with OATP1B1. On the set-up: method as in Elsby et al., 2016. The note with it: ref Elsby et al., 2016; cited from earlier work.
Another data set concerns rats. Briefly: Biochemical examination of liver function indices in rats. The note with it: rat plasma. In kind it is in vivo, Sprague-Dawley rats.
The target of the next data set is T3, MRP2 (Homo sapiens, UniProt Q92887).
T3 construct: purchased GenoMembrane Co., Ltd. (Yokohama, Japan) GM0001
T3 sequence (Q92887 whole entry): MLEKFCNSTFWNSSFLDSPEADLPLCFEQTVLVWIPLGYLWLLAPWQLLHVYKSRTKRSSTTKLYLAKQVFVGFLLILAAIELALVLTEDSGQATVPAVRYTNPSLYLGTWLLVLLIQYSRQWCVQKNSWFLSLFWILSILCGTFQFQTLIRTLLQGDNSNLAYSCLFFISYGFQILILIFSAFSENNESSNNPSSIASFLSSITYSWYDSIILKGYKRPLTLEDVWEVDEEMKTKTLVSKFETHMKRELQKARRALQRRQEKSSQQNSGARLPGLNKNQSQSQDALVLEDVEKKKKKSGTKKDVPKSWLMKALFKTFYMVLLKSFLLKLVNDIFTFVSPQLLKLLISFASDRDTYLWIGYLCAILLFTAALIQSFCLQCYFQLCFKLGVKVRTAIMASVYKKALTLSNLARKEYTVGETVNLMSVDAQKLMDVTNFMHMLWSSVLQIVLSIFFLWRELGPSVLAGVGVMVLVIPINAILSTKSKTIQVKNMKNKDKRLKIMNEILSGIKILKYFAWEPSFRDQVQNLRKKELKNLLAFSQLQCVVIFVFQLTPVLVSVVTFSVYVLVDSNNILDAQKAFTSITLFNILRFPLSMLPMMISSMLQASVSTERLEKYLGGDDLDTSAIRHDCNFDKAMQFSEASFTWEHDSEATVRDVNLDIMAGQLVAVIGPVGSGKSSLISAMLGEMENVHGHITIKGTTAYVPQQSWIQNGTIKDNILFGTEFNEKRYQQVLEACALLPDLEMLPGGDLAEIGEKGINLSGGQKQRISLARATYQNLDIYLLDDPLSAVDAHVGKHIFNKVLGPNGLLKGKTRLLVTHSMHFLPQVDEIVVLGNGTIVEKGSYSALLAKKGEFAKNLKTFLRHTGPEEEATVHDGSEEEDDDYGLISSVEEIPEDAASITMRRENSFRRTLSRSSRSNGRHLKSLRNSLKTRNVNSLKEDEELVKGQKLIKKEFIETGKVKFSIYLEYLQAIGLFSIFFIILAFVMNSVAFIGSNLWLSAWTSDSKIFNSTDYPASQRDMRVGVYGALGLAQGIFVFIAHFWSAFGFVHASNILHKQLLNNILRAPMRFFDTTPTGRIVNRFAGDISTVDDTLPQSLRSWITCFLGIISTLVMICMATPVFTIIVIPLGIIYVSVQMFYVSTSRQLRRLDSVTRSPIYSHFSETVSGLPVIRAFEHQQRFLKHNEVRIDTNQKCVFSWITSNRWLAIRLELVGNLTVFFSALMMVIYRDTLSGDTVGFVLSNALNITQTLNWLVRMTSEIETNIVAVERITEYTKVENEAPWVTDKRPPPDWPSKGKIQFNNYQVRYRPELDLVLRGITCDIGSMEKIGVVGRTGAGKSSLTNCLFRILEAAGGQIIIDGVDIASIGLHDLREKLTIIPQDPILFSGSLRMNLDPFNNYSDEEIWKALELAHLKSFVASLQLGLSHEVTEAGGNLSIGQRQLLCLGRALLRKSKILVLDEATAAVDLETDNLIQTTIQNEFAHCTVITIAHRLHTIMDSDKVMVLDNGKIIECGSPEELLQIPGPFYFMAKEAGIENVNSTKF
Briefly: RSV uptake into MRP2-expressing membrane vesicles. Format: biochemical. The note with it: ATP vs AMP; data not shown. On the procedure: The vesicular transport activity was determined by the 96-well rapid filtration method in BCRP- and MRP2-expressing membrane vesicles. […] Meanwhile, 5 μL RSV (final concentration, 1 μM) and 20 μL reagent C2 were pre-incubated at 37°C for 5 min. Then, the transport was initiated by mixing them in a 50 μL reaction system and incubated for the designated time at 37°C. The transport was terminated by adding 200 μL of cold buffer B2 at 4°C. Then, the mixture was filtered using a 96-well filter plate. After washing the vesicles five times with 200 μL of cold buffer B2 at 4°C, the vesicles were lysed with 50 μL of 80% […] twice and then centrifuged at 2000 rpm/min for 2 min. Lysates were collected and then centrifuged at 12,000 rpm/min for 5 min. The supernatants were injected onto the LC-MS/MS. The same procedures were applied to AMP-containing samples except that reagent D2 was used instead of reagent C2. All experiments were performed in quadruplicate.

[4] abbreviates: Group II single i.v. dose RSV + vehicle control.
[5] abbreviates: Group IV single p.o. dose RSV + vehicle control.

For orientation: IC50 means the concentration at which inhibition is half-maximal.

Description for rats: After the last sample in the plasma pharmacokinetic study, all rats were deeply anesthetized and exsanguinated by severing the abdominal aorta. Blood and liver samples were harvested. The plasma was used for the assay of alanine aminotransferase (ALT), aspartate aminotransferase (AST), total bilirubin (TBIL), unconjugated bilirubin (IBIL), and conjugated bilirubin (DBIL) by an automatic analyzer (Beckman Coulter, Brea, CA, United States).

`COC(=O)[C@H](c1ccccc1Cl)N1CCc2sccc2C1` [CP, clopidogrel]: in data set [1] (75 mg CP), the “Iin,max,u, steady-state unbound liver inlet concentration” value was 0.31 µM; the “I2, maximal theoretical gastrointestinal concentration” value was 932.19 µM; the “Imax,u, unbound steady-state plasma peak concentration” value amounted to 0.00002 µM. In data set [1] (300 mg CP), the “Iin,max,u, steady-state unbound liver inlet concentration” value turned out to be 1.24 µM; the “I2, maximal theoretical gastrointestinal concentration” value is reported as 3,728.77 μM; the “Imax,u, unbound steady-state plasma peak concentration” value turned out to be 0.00018 µM. On OATP1B3, this molecule returned a half-maximal inhibitory concentration (IC50) of over 50 µM. For the same molecule, the “Inhibition of OATP1B3-mediated RSV transport” value at OATP1B3 (1 μM RSV, CPC 0.05–50 μM) was “did not inhibit; also recorded: did not affect”. The IC50 at OATP1B1 [2] came out at 27.4 µM.
As for `CC(C)c1nc(N(C)S(C)(=O)=O)nc(-c2ccc(F)cc2)c1/C=C/[C@@H](O)C[C@@H](O)CC(=O)O` [RSV, rosuvastatin], in the data set on OATP1B1 [3], the “Individual contribution of OATP1B1 to hepatic uptake” value is listed as 0.38. Further, in the data set with rats (setting [4]), the ALT was determined as 54.00 ± 14.17 U/L, the AST is reported as 210.50 ± 36.59 U/L, the DBIL was determined as 1.12 ± 0.11 µmol/L and the IBIL was determined as 0.88 ± 0.18 µmol/L. Further, the TBIL with rats (setting [4]) is 2.00 ± 0.22 µmol/L. Further, in the data set with rats (setting [5]), the ALT is 52.00 ± 6.68 U/L, the AST came to 212.50 ± 33.72 U/L, the DBIL amounted to 0.58 ± 0.33 µmol/L and the IBIL was 0.57 ± 0.36 µmol/L. In addition, the TBIL with rats (setting [5]) was 1.13 ± 0.42 µmol/L. Besides, at MRP2, the “Uptake ratio into MRP2-expressing membrane vesicles” value is given as “less than 2”.
